According to ChEMBL document CHEMBL1144615, “Neuroprotective effects of kobophenol A against the withdrawal of tropic support, nitrosative stress, and mitochondrial damage in SH-SY5Y neuroblastoma cells” (2007):
Active and inactive are the calls of the source. The calls are words filed in the database; no cut-off is given here.

Columns and labels:
[1] = test system: SH-SY5Y; test: Effect on 3 mM sodium nitroprusside-induced mitochondrial transmembrane potential level in SH-SY5Y cells after 24 hrs; format: functional, Homo sapiens
[2] = test system: SH-SY5Y; test: Effect on sodium nitroprusside-induced intracellular calcium level in SH-SY5Y cells after 8 hrs relative to control; format: functional, Homo sapiens
[3] = molecular target: T1, Caspase-9 (Homo sapiens) (UniProt P55211); test: Decrease in paraquat-induced caspase 9 activity in SH-SY5Y cells; format: cell-based
T1 sequence (whole entry): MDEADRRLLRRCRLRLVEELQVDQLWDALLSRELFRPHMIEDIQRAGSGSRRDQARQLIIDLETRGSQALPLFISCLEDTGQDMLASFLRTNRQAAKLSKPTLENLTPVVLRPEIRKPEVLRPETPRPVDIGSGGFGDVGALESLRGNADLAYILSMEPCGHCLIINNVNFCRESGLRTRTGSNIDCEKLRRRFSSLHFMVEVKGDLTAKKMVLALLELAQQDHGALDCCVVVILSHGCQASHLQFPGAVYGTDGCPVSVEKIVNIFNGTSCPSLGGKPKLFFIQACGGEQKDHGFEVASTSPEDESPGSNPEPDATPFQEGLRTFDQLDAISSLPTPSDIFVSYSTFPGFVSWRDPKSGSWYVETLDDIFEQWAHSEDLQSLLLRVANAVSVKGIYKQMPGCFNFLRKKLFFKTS

[4] = molecular target: T2, Caspase-3 (Homo sapiens) (UniProt P42574); test: Decrease in paraquat-induced caspase-3 activity in SH-SY5Y cells; format: cell-based
T2 sequence (whole entry): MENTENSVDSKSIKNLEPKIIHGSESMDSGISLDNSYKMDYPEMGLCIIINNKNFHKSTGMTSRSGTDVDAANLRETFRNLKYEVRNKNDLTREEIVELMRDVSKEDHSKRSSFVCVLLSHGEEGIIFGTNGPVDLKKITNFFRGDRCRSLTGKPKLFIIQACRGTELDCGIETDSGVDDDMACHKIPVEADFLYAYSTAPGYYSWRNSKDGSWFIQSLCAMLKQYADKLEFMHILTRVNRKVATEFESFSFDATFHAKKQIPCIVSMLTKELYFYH

[5] = test system: SH-SY5Y; test: Increase in cell viability of SH-SY5Y cells in serum starved conditions at 30 ug/mL after 48 hrs by MTT assay relative to control; format: functional, Homo sapiens
[6] = test system: SH-SY5Y; test: Reduction on paraquat-induced ROS production in SH-SY5Y cells; format: functional, Homo sapiens; set-up: scale not given: the % may be the effect or the level left
[7] = test system: SH-SY5Y; test: Inhibition of 2 mM paraquat-induced cell death in SH-SY5Y cells assessed as increase in cell viability at 20 ug/mL after 24 hrs by MTT assay relative to control; format: functional, Homo sapiens
[8] = test system: SH-SY5Y; test: Reduction of sodium nitroprusside-induced nitric oxide production in SH-SY5Y cells; format: functional, cell-based; conditions: Homo sapiens
[9] = test system: SH-SY5Y; test: Effect on 2 mM paraquat-induced intracellular calcium level in SH-SY5Y cells after 24 hrs relative to contro; format: functional, Homo sapiens
[10] = molecular target: T1, Caspase-9 (Homo sapiens); test: Decrease in sodium nitroprusside-induced caspase 9 activity in SH-SY5Y cells; format: cell-based
[11] = test system: SH-SY5Y; test: Reduction of sodium nitroprusside-induced cell death in SH-SY5Y cells assessed as subG1 DNA content relative to control; format: functional, cell-based; conditions: Homo sapiens
[12] = test system: SH-SY5Y; test: Increase in cell viability of SH-SY5Y cells in serum starved conditions at 20 ug/mL after 48 hrs by MTT assay relative to control; format: functional, Homo sapiens
[13] = test system: SH-SY5Y; test: Inhibition of 5 mM sodium nitroprusside-induced cell death in SH-SY5Y cells assessed as increase in cell viability at 30 ug/mL after 24 hrs by MTT assay relative to control; format: functional, Homo sapiens
[14] = test system: SH-SY5Y; test: Effect on 3 mM sodium nitroprusside-induced mitochondrial transmembrane potential level in SH-SY5Y cells after 8 hrs; format: functional, Homo sapiens
[15] = molecular target: T2, Caspase-3 (Homo sapiens); test: Decrease in sodium nitroprusside-induced caspase-3 activity in SH-SY5Y cells; format: cell-based
[16] = test system: SH-SY5Y; test: Inhibition of 1 mM sodium nitroprusside-induced cell death in SH-SY5Y cells assessed as increase in cell viability at 30 ug/mL after 24 hrs by MTT assay relative to control; format: functional, Homo sapiens
[17] = test system: SH-SY5Y; test: Reduction of paraquat-induced cell death in SH-SY5Y cells assessed as subG1 DNA content relative to control; format: functional, cell-based; conditions: Homo sapiens
[18] = test system: SH-SY5Y; test: Reduction on sodium nitroprusside-induced ROS production in SH-SY5Y cells; format: functional, Homo sapiens; set-up: scale not given: the % may be the effect or the level left
[19] = test system: SH-SY5Y; test: Inhibition of 3 mM sodium nitroprusside-induced cell death in SH-SY5Y cells assessed as increase in cell viability at 30 ug/mL after 24 hrs by MTT assay relative to control; format: functional, Homo sapiens
[20] = test system: SH-SY5Y; test: Reduction of nitric oxide-induced intracellular calcium level in SH-SY5Y cells; format: functional, cell-based; conditions: Homo sapiens
[21] = test system: SH-SY5Y; test: Effect on sodium nitroprusside-induced intracellular calcium level in SH-SY5Y cells after 25 hrs relative to control; format: functional, Homo sapiens
[22] = test system: SH-SY5Y; test: Effect on 2 mM paraquat-induced intracellular calcium level in SH-SY5Y cells after 8 hrs relative to control; format: functional, Homo sapiens
[23] = test system: SH-SY5Y; test: Inhibition of 2 mM paraquat-induced cell death in SH-SY5Y cells assessed as increase in cell viability at 30 ug/mL after 24 hrs by MTT assay relative to control; format: functional, Homo sapiens
[24] = test system: SH-SY5Y; test: Increase in cell viability of SH-SY5Y cells in serum starved conditions at 10 ug/mL after 48 hrs by MTT assay relative to control; format: functional, Homo sapiens
[25] = test system: SH-SY5Y; test: Inhibition of 2 mM paraquat-induced cell death in SH-SY5Y cells assessed as increase in cell viability at 10 ug/mL after 24 hrs by MTT assay relative to control; format: functional, Homo sapiens

`Oc1ccc([C@H]2Oc3cc(O)cc([C@@H]4[C@H](c5cc(O)cc(O)c5)[C@@H](c5ccc(O)cc5)O[C@H]4c4ccc(O)cc4)c3[C@@H]2c2cc(O)c3c(c2)[C@@H](c2cc(O)cc(O)c2)[C@H](c2ccc(O)cc2)O3)cc1` [KOBOPHENOL A] was tested, and the Activity [1] was 119.3%, the Activity [2] was 96.1% and the Activity [3] was “Dose-dependent effect”. For the same compound, the Activity [4] was “Active”, the Activity [5] was 78.7% and the Activity [6] was 103.6%. The Activity [7] was 85.6%, the Activity [8] was “inactive” and the Activity [9] was 98.3%. For the same compound, the Activity [10] was “Dose-dependent effect”, the Activity [11] was “Active” and the Activity [12] was 91.4%. The Activity [13] was 88.1%, the Activity [14] was 128.3% and the Activity [15] was “Dose-dependent effect”. The Activity [16] was 108.6%, the Activity [17] was “Active” and the Activity [18] was 103.4%. The Activity [19] was 109.8%, the Activity [20] was “Active” and the Activity [21] was 96.1%. The Activity [22] was 99.1%, the Activity [23] was 102.5% and the Activity [24] was 105.7%. The Activity [25] was 66.3%.
